# Source: PubChem BioAssay (NCI)
# Where “and” joins values, the source holds several entries; their conditions need not be identical. Equal entries are not always repeated.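 Method: 48-hour compound exposure of cells in 96-well plates, five concentrations, linear interpolation of endpoints. GI50: concentration for 50% inhibition of growth. TGI marks complete inhibition of growth.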
# How the values were obtained:
# Experiment in all cases: inhibition of tumour cell growth, NCI panel, 48 h
# [1] = tested on: SNB-75 CNS
# [2] = tested on: UACC-62 melanoma
# [3] = tested on: K-562 leukemia
# [4] = tested on: CCRF-CEM leukemia
# [5] = tested on: SK-MEL-5 melanoma
# [6] = tested on: U251 CNS
# [7] = tested on: NCI-H226 lung
# [8] = tested on: MDA-MB-435
# [9] = tested on: A549 NSCLC
# [10] = tested on: IGROV1 ovarian
Compound,GI50 [1],TGI [1],GI50 [2],TGI [2],GI50 [3],TGI [3],GI50 [4],TGI [4],GI50 [5],TGI [5],GI50 [6],TGI [6],GI50 [7],TGI [7],GI50 [8],TGI [8],GI50 [9],TGI [9],GI50 [10],TGI [10]
CC(=O)OC12C=C(C)C(C(C)C1)C1C(=O)N(CCN3CCCCC3)C(=O)C12 (configuration not stated),> 50 µM,> 50 µM,> 50 µM,> 50 µM,> 50 µM,> 50 µM,> 50 µM,> 50 µM,> 50 µM,> 50 µM,> 50 µM,> 50 µM,> 50 µM,> 50 µM,> 50 µM,> 50 µM,> 50 µM,> 50 µM,> 50 µM,> 50 µM
C1CN(c2nnc(N3CCC3)nn2)C1,,> 46.4 µM,,38.5 µM,,> 31.6 µM,,> 100 µM,,73.3 µM,,> 92.6 µM,,> 100 µM,,32.4 µM,,> 100 µM,,> 100 µM
COc1cc(C2C3=C(COC3=O)N(CCO)c3cc4c(cc32)OCCO4)cc(OC)c1OC (configuration not stated),0.183 µM,> 50 µM,,> 50 µM,0.177 µM,> 50 µM,0.176 µM,> 50 µM,0.179 µM,0.916 µM,0.226 µM,> 50 µM,4.48 µM,> 50 µM,0.103 µM,0.256 µM,0.487 µM,> 50 µM,0.165 µM,0.898 µM
CCN(CC)CCCC(C)Nc1cc(-c2cccc(OC(F)(F)F)c2)nc2ccc(N3CCCC3)cc12 (configuration not stated),0.0361 µM,59.4 µM,0.0484 µM,20.9 µM,0.0391 µM,> 100 µM,0.0564 µM,> 100 µM,0.126 µM,0.589 µM,0.0473 µM,21.9 µM,0.189 µM,9.57 µM,0.0223 µM,0.0519 µM,0.0677 µM,> 100 µM,0.0941 µM,> 100 µM
O=C(NCC(F)(F)F)Nc1cccc(-c2cnc3cc(-c4ccc(F)cc4)ccn23)c1,0.24 µM,2.09 µM,2.44 µM,> 56.2 µM,0.376 µM,10.9 µM,1.25 µM,> 82.7 µM,0.549 µM,14 µM,0.622 µM,20.8 µM,3.99 µM,> 100 µM,0.216 µM,0.983 µM,0.947 µM,> 100 µM,0.673 µM,7.75 µM
COc1ccc(-c2nc(-c3nc4ccc(C)cc4[nH]3)cc3c2[nH]c2ccccc23)cc1,3.43 µM,> 100 µM,3.34 µM,23.1 µM,3.09 µM,> 100 µM,2.94 µM,18.7 µM,3.12 µM,12.6 µM,3.42 µM,> 100 µM,4.81 µM,58.7 µM,3.94 µM,> 100 µM,3.43 µM,> 100 µM,3.58 µM,> 100 µM
O=C1/C(=C/c2ccc(F)cc2)CN(C(=O)CCN2CCC(=NO)CC2)C/C1=C\c1ccc(F)cc1,2.29 µM,7.5 µM,0.84 µM,2.41 µM,0.408 µM,> 49.7 µM,0.514 µM,> 57.6 µM,1.73 µM,3.26 µM,0.63 µM,2.09 µM,2.55 µM,8.51 µM,0.827 µM,2.72 µM,4.09 µM,11.2 µM,1.43 µM,3.42 µM
CSc1nc2nc3c(nc2c(=O)n1C)C(=O)c1ccccc1C3=O,0.128 µM,0.266 µM,0.0467 µM,0.183 µM,0.272 µM,1.32 µM,0.259 µM,0.794 µM,0.0169 µM,0.0322 µM,0.229 µM,0.612 µM,0.193 µM,0.461 µM,0.0218 µM,0.0471 µM,0.0387 µM,0.184 µM,0.271 µM,0.778 µM
O=C(O)/C(Cc1cn[nH]n1)=N\O,,> 100 µM,,> 100 µM,,> 100 µM,,> 100 µM,,> 100 µM,,> 100 µM,,> 100 µM,,> 100 µM,,> 100 µM,,> 100 µM
CC(C)N(Cc1ccc(CN(C(=O)CCl)C(C)C)cc1)C(=O)CCl,1.29 µM,2.59 µM,1.04 µM,2.97 µM,2.28 µM,18.3 µM,0.287 µM,0.865 µM,0.451 µM,1.81 µM,1.77 µM,3.32 µM,3.25 µM,9.44 µM,1.7 µM,4.9 µM,2.57 µM,7.37 µM,0.629 µM,2.55 µM
O=C(CN(/C=C/C(=O)C(F)(F)F)c1ccc(Cl)cc1)c1ccc(Cl)c(Cl)c1,13.6 µM,31.6 µM,3.98 µM,16.1 µM,,,3.41 µM,11 µM,5.33 µM,20 µM,5.37 µM,16.8 µM,12.5 µM,30.1 µM,4.03 µM,13.5 µM,7.09 µM,21.5 µM,6.8 µM,22.1 µM
O=C(/C=C/C=C/c1ccccc1)c1ccco1,18 µM,72.5 µM,14.6 µM,28.4 µM,10.1 µM,29.6 µM,10.2 µM,33.3 µM,15.9 µM,29.4 µM,12.4 µM,24.9 µM,20.7 µM,50.2 µM,13.1 µM,29.2 µM,23.8 µM,77.4 µM,18.3 µM,37.6 µM
COc1cc(OC)cc(C2C3=C(COC3=O)Nc3cc(OC)ccc32)c1 (configuration not stated),< 0.01 µM,24.1 µM,< 0.01 µM,> 81.2 µM,< 0.01 µM,13.4 µM,< 0.01 µM,> 100 µM,< 0.01 µM,0.0178 µM,< 0.01 µM,> 43.8 µM,< 0.01 µM,0.0207 µM,< 0.01 µM,< 0.01 µM,< 0.01 µM,27.7 µM,< 0.01 µM,> 94.5 µM
CNCCCNc1nc2ccccc2c2c(=O)c3cc(OC)ccc3sc12,1.69 µM,3.39 µM,1.76 µM,3.27 µM,2 µM,5.38 µM,2.39 µM,6.08 µM,1.72 µM,3.13 µM,1.81 µM,3.71 µM,1.8 µM,3.9 µM,1.8 µM,3.24 µM,1.84 µM,3.82 µM,1.55 µM,3.03 µM
Cc1ccc(-c2nc(/C=N/Nc3cc(C)nc4ccc(Cl)cc34)c(C)o2)cc1,1.55 µM,3.2 µM,1.77 µM,3.43 µM,,,1.61 µM,4.81 µM,1.76 µM,3.15 µM,1.83 µM,3.39 µM,1.84 µM,3.72 µM,1.69 µM,3.25 µM,1.83 µM,3.77 µM,1.81 µM,3.48 µM
CCCCCC(O)C(O)CCC[C@H](O)[C@H]1CC[C@H]([C@H]2CC[C@H]([C@H](O)CCCCCCCCCCCCC3=C[C@H](C)OC3=O)O2)O1 (some centres not stated),15.2 µM,37.9 µM,,7.54 µM,,6.4 µM,,8.35 µM,,3.82 µM and 3.07 µM,8.47 µM,> 100 µM,5.25 µM,35.9 µM,6.84 µM,,3.48 µM,> 100 µM,7.46 µM,29.4 µM
CCCOC(=O)c1c(C)n(C)c2scc[n+]12,50.5 µM,> 100 µM,> 100 µM,> 100 µM,21 µM,> 100 µM,53.5 µM,> 100 µM,49.1 µM,> 100 µM,34 µM,> 100 µM,62.3 µM,> 100 µM,> 100 µM,> 100 µM,,,,22.9 µM
COc1ccc(-c2cc3c(C)nc(N)nc3n(C3CCC(OCCO)CC3)c2=O)cn1 (configuration not stated),0.0151 µM and < 0.0117 µM,0.137 µM and 0.177 µM,0.02 µM and 0.046 µM,0.165 µM and 0.365 µM,0.593 µM and 0.36 µM,> 100 µM,0.134 µM and 0.0803 µM,> 23.8 µM,0.144 µM and 0.103 µM,0.543 µM and 0.65 µM,0.181 µM and 0.162 µM,2.75 µM and 1.9 µM,0.0742 µM and 0.105 µM,> 2.19 µM and 0.946 µM,0.0985 µM and 0.0842 µM,0.941 µM and 0.564 µM,0.123 µM and 0.109 µM,0.959 µM and 0.489 µM,0.021 µM and 0.0199 µM,0.0983 µM and 0.092 µM
O=C1CSC(c2ccccc2Cl)N1c1nnc(Cn2cnnc2)o1 (configuration not stated),3.19 µM,41.8 µM,7.55 µM,27.5 µM,3.33 µM,16.2 µM,5.83 µM,> 100 µM,7.81 µM,21.2 µM,4.58 µM,18.9 µM,17.3 µM,36.1 µM,2.2 µM,5.96 µM,18 µM,> 100 µM,17 µM,> 100 µM
CC(=O)N1CCN(CCNC(=O)n2cc(-c3ccncc3)c(-c3cc(O)cc(Cl)c3)n2)CC1,13.5 µM,41.4 µM,2.95 µM,16.2 µM,4.41 µM,29.4 µM,11.8 µM,66.5 µM,3.66 µM,16.9 µM,10.9 µM,26.1 µM,16.7 µM,40.5 µM,2.7 µM,15.7 µM,15.1 µM,38.7 µM,18.5 µM,55.1 µM
O=C(O)/C(Cc1ccnc2ccccc12)=N\O,,> 100 µM,,> 100 µM,,> 100 µM,,> 100 µM,,> 100 µM,,> 100 µM,,> 100 µM,,> 100 µM,,> 100 µM,,> 100 µM
C#CC1=CC(=O)C(OC)=CC1=O,,18.5 µM,,29.2 µM,,> 100 µM,,30.8 µM,,40 µM,,> 100 µM,,42 µM,,34.8 µM,,> 100 µM,,
CN1Cc2ccccc2/C=C\c2ccccc21,,> 100 µM,,> 100 µM,,,,> 100 µM,,> 100 µM,,> 100 µM,,> 100 µM,,> 100 µM,,> 100 µM,,> 100 µM
CS(=O)(=O)c1ccc(Nc2nc(N[C@H]3CCCC[C@H]3N)nc3cc[nH]c(=O)c23)cc1,1.29 µM,3.51 µM,1.5 µM,3.5 µM,1.14 µM,> 100 µM,1.24 µM,> 100 µM,1.53 µM,3.25 µM,0.664 µM,21.1 µM,2.67 µM,19 µM,1.3 µM,3.7 µM,3.87 µM,> 100 µM,,
c1ccc(OCCC[P+](c2ccccc2)(c2ccccc2)c2ccccc2)cc1,1.27 µM,6.7 µM,,,0.634 µM,16.3 µM,1.85 µM,18.1 µM,0.438 µM,1.74 µM,1.63 µM,14 µM,2.3 µM,30.5 µM,0.481 µM,10.3 µM,2.36 µM,20.3 µM,1.42 µM,17.4 µM
C#C[C@@]1(O)[C@@H](CO)O[C@@H](n2cc(I)c3c(N)ncnc32)[C@@H]1O,0.457 µM,1.99 µM,0.615 µM,2.78 µM,0.064 µM,> 100 µM,0.271 µM,> 100 µM,0.209 µM,3.3 µM,0.0734 µM,> 32 µM,1.72 µM,> 100 µM,0.473 µM,12.8 µM,0.298 µM,> 100 µM,,
CN(C)CCCn1c(=O)c2ccccc2c2cnc3[nH]ccc3c21,1.17 µM,3.6 µM,1.59 µM,2.97 µM,2.03 µM,11.5 µM,1.53 µM,8.44 µM,1.77 µM,3.51 µM,2.12 µM,7.21 µM,0.862 µM,2.58 µM,1.76 µM,6.66 µM,,,2.28 µM,11.7 µM
